Data taken from patent publication US20060111289A1, “Compositions and methods of using Alpha-fetoprotein growth inhibitory peptides” (Serometrix, LLC,, priority 2004, published 2006).
Where a SMILES comes first, the peptide text is derived from it.

How the values were obtained:
MCF-7 cells [1] = assay: MCF-7 cell proliferation assay (8 days, sulforhodamine B); format: cell-based, human
Procedure: MCF-7 cells were seeded at 25,000 cells/well in 48 well microtiter plates, and incubated for eight days in the various test and control reagents. […] Tumor cells were fixed after 8 days and analyzed for proliferation using the standard sulfarhodamine B staining procedure.

MCF-7 cells [2] = assay: Estrogen-dependent MCF-7 foci formation assay; format: cell-based, human; design: % Inhibition Of Activity: MCF-7 foci formation: concentration or dose not given beside the values
From the text: Mizejewski et al., “Alpha-fetoprotein derived synthetic peptides: assay of an estrogen-modifying regulatory segment” Mol Cell Endocrinol 118:15-23 (1996). The P149 peptide inhibited the formation of tumor cell foci formed as a result of the accumulation of breast cancer cells which clump together due to loss of contact inhibition.

[3] = test system: immature mouse uterine growth; assay: E2-activated immature mouse uterine growth assay; format: in vivo; design: % Inhibition Of Activity: Uterine Growth: concentration or dose not given beside the values; conditions: for Inhibition in the mouse uterine assay: linear versus cyclic configuration
Procedure: FIG. 3 presents exemplary data showing the growth suppressive activities of the oligomeric forms of P149, cyclic versus linear, are depicted in various in vitro and in vivo models. Biological activity was determined by three growth-dependent bioassays, namely; • Panel-A and A1) an immature rodent uterine bioassay; • Panel-B and B 1) an in vitro MCF-7 foci assay; • Panel-C and C1) an in vitro tumor cell cytostatic assessment. […] See text for details. Scrambled peptide=P327. […]

[4] = test system: 6WI-1 mammary tumor cells; assay: Mouse ascites mammary tumor assay (6WI-1 isograft); format: in vivo
[5] = test system: 6WI-1 mammary tumor cells; assay: 6WI-1 mammary tumor in 15-day old mouse pups (6 day assay); format: in vivo; design: % Inhibition Of Activity: 6WI-1 Pup Ascites: concentration or dose not given beside the values; conditions: mouse pups
From the text: As an alternative model of the 6WI-I mammary tumor in adult mice, an inocula of 1×10^6 tumor cells injected into 15-day old mouse pups provided a 6 day rather than a 12 day assay and replicated the same tumor growth suppression by GIP.

[6] = 6WI-1 mouse mammary ascites tumor

Row | Molecule | Growth suppression of MCF-7 cells (MCF-7 cells [1]; 8 days, 10^−8 to 10^−12 M) [%] | Most effective concentration for growth suppression (MCF-7 cells [1]; culture day-8, tested 10^−5 to 10^−14 M) | Inhibition in the MCF-7 foci-assay (MCF-7 cells [2]; linear versus cyclic configuration) | Inhibition in the mouse uterine assay [3] | Inhibition in the mouse uterine assay ([3]; listed as cyclic peptide) | % Inhibition Of Activity: 6WI-1 Acites Volume [4, 6] [%] | % Inhibition Of Activity: 6WI-1 Body Weight [4, 6] [%] | % Inhibition Of Activity: 6WI-1 Cell Prol [4, 6] [%] | % Inhibition Of Activity: 6WI-1 Peptide Combos ([4]; peptide combination) [%] | % Inhibition Of Activity: MCF-7 foci formation (MCF-7 cells [2]) [%] | % Inhibition Of Activity: 6WI-1 Pup Ascites [5] [%] | % Inhibition Of Activity: Uterine Growth ([3]; mouse, in vivo) [%]
1 | CC[C@H](C)[C@H](NC(=O)[C@@H]1CSSC[C@H](NC(=O)[C@H](C)NC(=O)[C@H](CC(C)C)NC(=O)[C@H](CC(C)C)NC(=O)[C@H](CCCCN)NC(=O)[C@H](CC(=O)O)NC(=O)[C@H](CCC(=O)O)NC(=O)[C@H](CO)NC(=O)[C@@H](N)CC(C)C)C(=O)NCC(=O)N[C@@H](CCC(=O)O)C(=O)NCC(=O)N[C@@H](C)C(=O)N[C@@H](C)C(=O)N[C@@H](CC(=O)O)C(=O)N[C@@H]([C@@H](C)CC)C(=O)N[C@@H]([C@@H](C)CC)C(=O)N[C@@H]([C@@H](C)CC)C(=O)NCC(=O)N[C@@H](Cc2c[nH]cn2)C(=O)N[C@@H](CC(C)C)C(=O)N1)C(=O)N[C@@H](CCCNC(=N)N)C(=O)N[C@@H](Cc1c[nH]cn1)C(=O)N[C@@H](CCC(=O)O)C(=O)N[C@@H](CCSC)C(=O)N[C@H](C(=O)N1CCC[C@H]1C(=O)N[C@H](C(=O)N[C@@H](CC(N)=O)C(=O)N1CCC[C@H]1C(=O)NCC(=O)N[C@H](C(=O)O)C(C)C)C(C)C)[C@@H](C)O [Cyclic GIP] (HELM PEPTIDE1{L.S.E.D.K.L.L.A.C.G.E.G.A.A.D.I.I.I.G.H.L.C.I.R.H.E.M.T.P.V.N.P.G.V}$PEPTIDE1,PEPTIDE1,9:R3-22:R3$$$V2.0; N-terminus and C-terminus assumed) | 80 to 90 | 10^−8 M | 20-25% | 20-25% | only marginally inhibitory |  |  |  |  |  |  | 
2 | KDFIHKQGVALQTMKQELINLVKELVKPQIEAVADFSGLL (listed as Homo sapiens) [P192, reference compound] |  |  |  |  |  | 0 | 0 | 0 | 0 | 0 | 0 | 0
